Reference: PMC9272661 (Antiviral Research, 2022)

Legend:
[1] = molecular target: T1, SARS-CoV-2 3CLpro (Severe acute respiratory syndrome coronavirus 2, UniProt P0DTD1); assay: Enzyme kinetics, Lineweaver-Burk plots; type: biochemical; settings: 200 nM 3CLpro, inhibitor 5 μM or 10 μM
[2] = molecular target: T1, SARS-CoV-2 3CLpro; assay: Inhibition of cleavage of TriPro substrate protein; type: biochemical; settings: 0.8 μM 3CLpro, 1 h preincubation, SDS-PAGE
[3] = molecular target: T1, SARS-CoV-2 3CLpro; assay: Surface plasmon resonance binding to immobilized 3CLpro; settings: 0.164-100 μM, 25 °C, n = 3
[4] = molecular target: T1, SARS-CoV-2 3CLpro; assay: FRET-based enzymatic assay of 3CLpro; type: biochemical; settings: at 50 μM concentration

| SMILES | Inhibition Type [1] | Inhibition of cleavage of TriPro substrate protein [2] | KD (SPR, steady-state affinity model) [3] | Inhibitory activity against SARS-CoV-2 3CLpro [4] |
| --- | --- | --- | --- | --- |
| Cl.NCCOc1ccc(Cl)cc1C(=O)NCC(=O)Nc1ccc([N+](=O)[O-])cc1Cl [JMX0286, 2-(2-Aminoethoxy)-5-chloro-N-(2-((2-chloro-4-nitrophenyl)amino)-2-oxoethyl)benzamide hydrochloride] | Non-competitive | inhibited the cleavage of the TriPro substrate protein in a dose dependent manner |  |  |
| CC(C)(C)OC(=O)NCCOc1ccc(Cl)cc1C(=O)NCC(=O)Nc1ccc([N+](=O)[O-])cc1Cl [JMX0301, Tert-Butyl (2-(4-chloro-2-((2-((2-chloro-4-nitrophenyl)amino)-2-oxoethyl)carbamoyl)phenoxy)ethyl)carbamate] | Non-competitive | inhibited the cleavage of the TriPro substrate protein in a dose dependent manner | did not show binding |  |
| O=C(Nc1ccc([N+](=O)[O-])cc1Cl)c1cc(Cl)ccc1O [niclosamide] |  |  |  | does not inhibit |
